Assay results reported in the supplement of paper PMC11061612.

Key:
Assay in all cases: Bliss excess, mean over the matrix (fraction); higher = more synergy
IST-MES1 (Mesothelioma) = test system: IST-MES1 (Mesothelioma)
Procedure, shortened: (§1)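 Cell lines grown in DMEM/F12 or RPMI with 10% FBS were plated in 1536-well plates and held 24 hours at 37°C, 5% CO2 before 72 hours of exposure to two-drug dose matrices, with DMSO typically at 0.2%. CellTiter-Glo 2.0 luminescence gave viability, which was converted to inhibition. Vehicle wells were set to 0 and blank wells to 1. Combination Emax is the second-highest inhibition in the matrix, and Bliss excess is the observed combination effect minus the expected EA + EB − EA·EB, where EA and EB are the single-agent effects.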

[1] = test system: SHP-77 (Small Cell Lung Carcinoma)
Procedure, shortened: as §1

SF539 (Glioblastoma) = test system: SF539 (Glioblastoma)
Procedure, shortened: as §1

[2] = test system: GP5d (Colorectal Carcinoma)
Procedure, shortened: as §1

[3] = test system: OVMIU (Ovarian Carcinoma)
Procedure, shortened: as §1

A2058 (Melanoma) = test system: A2058 (Melanoma)
Procedure, shortened: as §1

[4] = test system: PSN1 (Pancreatic Carcinoma)
Procedure, shortened: as §1

[5] = test system: VAL (B-Cell Non-Hodgkin's Lymphoma)
Procedure, shortened: as §1

[6] = test system: L-1236 (Hodgkin's Lymphoma)
Procedure, shortened: as §1

GB-1 (Glioblastoma) = test system: GB-1 (Glioblastoma)
Procedure, shortened: as §1

[7] = test system: NCI-H23 (Lung Adenocarcinoma)
Procedure, shortened: as §1

WM278 (Melanoma) = test system: WM278 (Melanoma)
Procedure, shortened: as §1

[8] = test system: NCI-H446 (Small Cell Lung Carcinoma)
Procedure, shortened: as §1

[9] = test system: 23132-87 (Gastric Carcinoma)
Procedure, shortened: as §1

[10] = test system: MFE-280 (Endometrial Carcinoma)
Procedure, shortened: as §1

[11] = test system: RKN (Other Solid Carcinomas)
Procedure, shortened: as §1

[12] = test system: HCT-15 (Colorectal Carcinoma)
Procedure, shortened: as §1

[13] = test system: MKN45 (Gastric Carcinoma)
Procedure, shortened: as §1

[14] = test system: LXF-289 (Lung Adenocarcinoma)
Procedure, shortened: as §1

[15] = test system: LK-2 (Squamous Cell Lung Carcinoma)
Procedure, shortened: as §1

Compound | Bliss excess (IST-MES1 (Mesothelioma)) | Bliss excess [1] | Bliss excess (SF539 (Glioblastoma)) | Bliss excess [2] | Bliss excess [3] | Bliss excess (A2058 (Melanoma)) | Bliss excess [4] | Bliss excess [5] | Bliss excess [6] | Bliss excess (GB-1 (Glioblastoma)) | Bliss excess [7] | Bliss excess (WM278 (Melanoma)) | Bliss excess [8] | Bliss excess [9] | Bliss excess [10] | Bliss excess [11] | Bliss excess [12] | Bliss excess [13] | Bliss excess [14] | Bliss excess [15]
COc1nnc2ccc(N3CCC(c4ccc(OCCN5CCN(C)C(=O)[C@H]5C)cc4)CC3)nn12 [AZD5153] + CC1(C)CCC(CN2CCN(c3ccc(C(=O)NS(=O)(=O)c4ccc(NCC5CCOCC5)c([N+](=O)[O-])c4)c(Oc4cnc5[nH]ccc5c4)c3)CC2)=C(c2ccc(Cl)cc2)C1 [Venetoclax] (first compound max 1 µM, 7x7, partner max 1 µM) | -0.0237 | 0.0049 | -0.0797 | -0.0741 | -0.0254 | -0.0876 | -0.0649 | -0.0493 | 0.0177 | -0.062 | -0.0473 | -0.0188 | 0.0507 | -0.0697 | -0.0138 | -0.0369 | -0.0242 | -0.0389 | -0.009 | -0.0015
COc1nnc2ccc(N3CCC(c4ccc(OCCN5CCN(C)C(=O)[C@H]5C)cc4)CC3)nn12 [AZD5153] + CCN(CCO)CCCOc1ccc2c(Nc3cc(CC(=O)Nc4cccc(F)c4)[nH]n3)ncnc2c1 [AZD2811] (first compound max 1 µM, 7x7, partner max 1 µM) | -0.0132 | -0.0325 | -0.0184 | -0.082 | -0.0733 | 0.0568 | 0.0384 | -0.0945 | -0.027 | -0.0787 | -0.0412 | -0.0654 | -0.0481 | -0.0223 | -0.0343 | -0.0286 | -0.0143 | -0.01 | 0.0227 | -0.282
COc1nnc2ccc(N3CCC(c4ccc(OCCN5CCN(C)C(=O)[C@H]5C)cc4)CC3)nn12 [AZD5153] + C[C@@H]1COCCN1C2=NC(=NC(=C2)C3(CC3)[S@](=N)(=O)C)C4=C5C=CNC5=NC=C4 [AZD6738] (first compound max 1 µM, 7x7, partner max 10 µM) | -0.0183 | 0.0591 | 0.0418 | -0.0421 | -0.0208 | 0.0671 | 0.0171 | -0.111 | -0.0093 | 0.0446 | -0.0105 | 0.0507 | 0.0153 | 0.0394 | -0.0103 | -0.0757 | 0.0267 | -0.0649 | 0.0681 | 0.0491
COc1nnc2ccc(N3CCC(c4ccc(OCCN5CCN(C)C(=O)[C@H]5C)cc4)CC3)nn12 [AZD5153] + Cc1c2c(nn1C)CSCc1cc(n(C)n1)CSc1cc(c3ccccc3c1)OCCCc1c(C(=O)O)n(C)c3c-2c(Cl)ccc13 [AZD5991] (first compound max 1 µM, 7x7, partner max 1 µM) | -0.0031 | 0.0387 | -0.0273 | -0.0569 | -0.0072 | 0.067 | -0.0263 | -0.112 | 0.0283 | -0.0513 | -0.086 | -0.0929 | 0.0153 | 0.0791 | -0.0473 | -0.0692 | -0.0709 | -0.0635 | 0.0019 | 0.0184
COc1nnc2ccc(N3CCC(c4ccc(OCCN5CCN(C)C(=O)[C@H]5C)cc4)CC3)nn12 [AZD5153] + Cn1cnc2c(F)c(Nc3ccc(Br)cc3Cl)c(C(=O)NOCCO)cc21 [Selumetinib] (first compound max 1 µM, 7x7, partner max 10 µM) | 0.0054 | -0.134 | -0.0255 | -0.0805 | -0.0452 | 0.0358 | 0.0717 | -0.0157 | -0.0252 | -0.035 | -0.0027 | -0.0471 | 0.033 | -0.036 | 0.0114 | -0.0073 | 0.0243 | -0.0237 | -0.0468 | 0.0918
Cc1c2c(nn1C)CSCc1cc(n(C)n1)CSc1cc(c3ccccc3c1)OCCCc1c(C(=O)O)n(C)c3c-2c(Cl)ccc13 [AZD5991] + C1CN(CCC1(C(=O)N[C@@H](CCO)C2=CC=C(C=C2)Cl)N)C3=NC=NC4=C3C=CN4 [Capivasertib] (first compound max 1 µM, 7x7, partner max 3 µM) | -0.0195 | -0.0033 | -0.0043 | -0.0493 | 0.0023 | 0.0972 | -0.0533 | -0.0223 | 0.0039 | -0.0365 | -0.0276 | -0.0498 | 0.0419 | -0.0492 | 0.027 | -0.0234 | 0.002 | -0.0262 | 0.042 | -0.0103
Cc1c2c(nn1C)CSCc1cc(n(C)n1)CSc1cc(c3ccccc3c1)OCCCc1c(C(=O)O)n(C)c3c-2c(Cl)ccc13 [AZD5991] + C=CCn1c(=O)c2cnc(Nc3ccc(N4CCN(C)CC4)cc3)nc2n1-c1cccc(C(C)(C)O)n1 [AZD1775] (first compound max 1 µM, partner max 1 µM) | 0.0383 | -0.0378 | -0.0239 | -0.0133 | 0.0145 | 0.0959 | -0.0694 | -0.114 | -0.0319 | 0.0148 | -0.0174 | 0.0438 | -0.0162 | 0.0274 | 0.0045 | -0.0446 | -0.0306 | -0.0456 | -0.029 | -0.0217
